Data taken from US12303492B2, “Compounds for treating TNBC” (Purdue Pharma L.P., priority 2017, dated 2025).

System: HCC1143 p13 spheroid (TNBC, BL1 subtype, BRCA-1 wt)
Assay: TNBC spheroid model, residual cell viability by standard ATP assay
Assay type: cell-based
Settings: for mean cell viability: mean of six repeats
Procedure: The activity of EDO-S101 alone and in combination was evaluated in triple negative breast cancer (TNBC) cells lines using a spheroid model.
Heterotypic tumour spheroids were prepared from the individual primary breast cancer tissue. The tumour samples were mechanically and enzymatically digested using an enzyme cocktail (Roche, Penzberg Germany), cell viability determined using the trypan-blue exclusion test, and spheroids seeded at a cell density of 50,000 using a modified liquid overlay method. After 48 h in cell culture under standard conditions, successful spheroid formation was documented photographically before starting treatment.
The spheroids were treated with EDO-S101 (5 μM, 10 μM) alone and in combination with carboplatin and/or the PARP inhibitor olaparib (Table 2) for different periods of time (48, 72 h). Solvent controls and an untreated (medium) control was used under the same culture conditions. Treatment efficacy of all drugs was analysed with a standard ATP assay.
The results are the mean of six repeats per treatment based on the results of the ATP assay.
HCC1143 cells are from the BL1 triple negative breast cancer subtype.

N.N.O=C([O-])C1(C(=O)[O-])CCC1.[Pt+2] [Carboplatin, reference compound]
mean cell viability (HCC1143 p13 spheroids, T48 h, control agents: carboplatin 40.84 μg/ml, paclitaxel 1.53 μg/ml, olaparib 6.6 μg/ml): 118.28 % solvent control | mean cell viability (HCC1143 spheroids, T72 h, control agents: carboplatin 40.84 μg/ml, paclitaxel 1.53 μg/ml, olaparib 6.6 μg/ml): 105.88 % solvent control

Cn1c(CCCCCCC(=O)NO)nc2cc(N(CCCl)CCCl)ccc21 [EDO-S101, 7-(5-(bis(2-chloroethyl)amino)-1-methyl-1H-benzo[d]imidazol-2-yl)-N-hydroxyheptanamide]
mean cell viability (HCC1143 p13 spheroids, T48 h, EDO S101 5 μM alone or with carboplatin 40.84 μg/ml and/or olaparib 6.6 μg/ml): 85.75 % solvent control | mean cell viability (HCC1143 p13 spheroids, T48 h, EDO S101 10 μM alone or with carboplatin 40.84 μg/ml and/or olaparib 6.6 μg/ml): 57.43 % solvent control | mean cell viability (HCC1143 spheroids, T72 h, EDO S101 5 μM alone or with carboplatin 40.84 μg/ml and/or olaparib 6.6 μg/ml): 79.99 % solvent control | mean cell viability (HCC1143 spheroids, T72 h, EDO S101 10 μM alone or with carboplatin 40.84 μg/ml and/or olaparib 6.6 μg/ml): 77.09 % solvent control | residual cell viability (HCC1143 spheroids, after 48 h, EDO-S101 5 μm (alone or in combination)): 86% | residual cell viability (HCC1143 spheroids, after 48 h, EDO-S101 10 μm): 57%

O=C(c1cc(Cc2n[nH]c(=O)c3ccccc23)ccc1F)N1CCN(C(=O)C2CC2)CC1 [Olaparib, reference compound]
residual cell viability (human, 72 h): 62%
